Test results reported in patent US20110135742A1, “CONTROLLED RELEASE ENCAPSULATED ANTI-BACTERIAL AND ANTI-INFLAMMATORY NANOPARTICLES” (The Regents of the University of California, priority 2006, published 2011).

What was measured:
[1] = recorded, background statement; cited from earlier work
eukaryotic cells = test: MTT assay; format: cell-based; conditions: FIG. 6
P. acnes [2] = test: CFU assay against P. acnes; format: cell-based; conditions: FIG. 4
P. acnes [3] = test: Scanning electron microscopy of P. acnes; format: cell-based; conditions: FIG. 7
IL-12p40 = test: P. acnes stimulated IL-12p40 production by primary human monocytes; format: cell-based; conditions: primary human monocytes stimulated with P. acnes; dilutions 1, 10^-1, 10^-2; FIG. 5

CC1=C(/C=C/C(C)=C/C=C/C(C)=C\C(=O)O)C(C)(C)CCC1 [Isotretinoin]
success as acne medication [1]: 80-90%

O=C(OOC(=O)c1ccccc1)c1ccccc1 [benzoyl peroxide]
toxicity to eukaryotic cells (eukaryotic cells): not toxic
killing of P. acnes, benzoyl peroxide un-encapsulated or nanoparticle encapsulated (P. acnes [2]): kills bacteria
physical changes in the bacteria, compared with control (P. acnes [3]): destroy the bacteria and kill P. acnes
inhibition of IL-12p40 production (IL-12p40): inhibited
